# According to US8314143B2, “Synthetic flavonoids and pharmaceutical compositions and therapeutic methods of treatment of HIV infection and other pathologies” (Florida A&M University, priority 2006, dated 2012):
# Values joined by “and” are separate entries in the source; they are usually repeats but may differ in a detail not shown here. Identical values can stand only once.
# Experiments:
# MCF-7 cells = experiment: Cytoxicity on MCF-7 cells (drug inhibition, cell count); assay type: cell-based; set-up: Drug Inhibition on MCF-7 Cells / MCF-7 Mean (drug inhibition) / Drug inhibition on MCF-7 Cells Mean: unit not given here; settings: MCF-7 cells
# Source text: (§1) The purified and identified analogs were subjected to in vitro biological testing. […] These three congeners were further evaluated in H9 and PC3 cells. AZT was employed as a positive control in all of these experiments.
# H-9 cells = experiment: Cytoxicity on H-9 cells (drug inhibition, cell count); assay type: cell-based; settings: for H-9 Mean (drug inhibition): Table 4 summary; for % Inhibition Mean / Cells (×10^4) Mean / % Inhibition / Cells (×10^4): Exp. Dec. 05 to Dec. 09, 2005; for % Inhibition / Cells (×10^4): single replicates
# Source text: as §1
# [1] = 5 μg/ml, single replicates, Exp. Sep. 12 to Sep. 16, 2005
# [2] = 5 μg/ml, single replicates, Exp. Sep. 26 to Sep. 30, 2005
# [3] = 10 μg/ml, mean, Exp. Nov. 14 to Nov. 18, 2005
# [4] = 10 μg/ml, mean, Exp. Sep. 08 to Sep. 12, 2005
# [5] = 10 μg/ml, mean, Exp. Sep. 12 to Sep. 16, 2005
# [6] = 10 μg/ml, mean, Exp. Sep. 26 to Sep. 30, 2005
# [7] = 10 μg/ml, single replicates, Exp. Nov. 14 to Nov. 18, 2005
# [8] = 10 μg/ml, single replicates, Exp. Sep. 08 to Sep. 12, 2005
# [9] = 10 μg/ml, single replicates, Exp. Sep. 12 to Sep. 16, 2005
# [10] = 10 μg/ml, single replicates, Exp. Sep. 26 to Sep. 30, 2005
compound,measurement,setting,value
"Cc1cn([C@H]2C[C@H](N=[N+]=[N-])[C@@H](CO)O2)c(=O)[nH]c1=O [AZT, reference compound]",% Inhibition,MCF-7 cells; [1],47.98% and 51.88% and 51.45%
same,Cells (x10^4),MCF-7 cells; [1],30.0 x10^4 and 27.8 x10^4 and 28.0 x10^4
same,% Inhibition,MCF-7 cells; [2],49.98% and 45.04% and 45.55%
same,Cells (×10^4),MCF-7 cells; [2],24.8 ×10^4 and 27.3 ×10^4 and 27.0 ×10^4
same,Drug Inhibition on MCF-7 Cells,"MCF-7 cells; 10 μg/ml, Table 8 summary",61.1
same,Drug Inhibition on MCF-7 Cells,"MCF-7 cells; 10 μg/ml, Table 12 summary",65.21
same,MCF-7 Mean (drug inhibition),"MCF-7 cells; 10 μg/ml, Table 13 summary part",57.45
same,Drug inhibition on MCF-7 Cells Mean,"MCF-7 cells; 10 μg/ml, Table 14 summary part",65.03
same,% Inhibition Mean,MCF-7 cells; [3],61.10%
same,Cells (×10^4) Mean,MCF-7 cells; [3],22.50 ×10^4
same,% Inhibition Mean,MCF-7 cells; [4],57.45%
same,Cells (×10^4) Mean,MCF-7 cells; [4],30.00 ×10^4
same,% Inhibition Mean,MCF-7 cells; [5],65.03%
same,Cells (x10^4) Mean,MCF-7 cells; [5],20.17 x10^4
same,% Inhibition Mean,MCF-7 cells; [6],65.21%
same,Cells (×10^4) Mean,MCF-7 cells; [6],17.25 ×10^4
same,% Inhibition,MCF-7 cells; [7],61.53% and 60.23%
same,Cells (×10^4),MCF-7 cells; [7],22.3 ×10^4 (2×) and 23.0 ×10^4
same,% Inhibition,MCF-7 cells; [8],57.45%
same,Cells (×10^4),MCF-7 cells; [8],30.0 ×10^4
same,% Inhibition,MCF-7 cells; [9],69.65% and 62.72%
same,Cells (x10^4),MCF-7 cells; [9],17.5 x10^4 and 21.5 x10^4 (2×)
same,% Inhibition,MCF-7 cells; [10],65.21% and 63.19% and 67.23%
same,Cells (×10^4),MCF-7 cells; [10],17.3 ×10^4 and 18.3 ×10^4 and 16.3 ×10^4
same,Cells (×10^4) Mean,"MCF-7 cells; drug 1 μg/ml, mean of replicates",43.08 ×10^4
same,% Inhibition Mean,"MCF-7 cells; drug 1 μg/ml, mean of replicates, vs 2% DMSO",15.38%
same,Cells (×10^4),"MCF-7 cells; drug 1 μg/ml, single replicate count",43.3 ×10^4 (2×) and 42.8 ×10^4
same,% Inhibition,"MCF-7 cells; drug 1 μg/ml, single replicate, vs 2% DMSO",15.06% and 16.04%
same,Cells (×10^4) Mean,"MCF-7 cells; drug 5 μg/ml, mean of replicates",32.08 ×10^4
same,% Inhibition Mean,"MCF-7 cells; drug 5 μg/ml, mean of replicates, vs 2% DMSO",36.99%
same,Cells (×10^4),"MCF-7 cells; drug 5 μg/ml, single replicate count",31.5 ×10^4 and 32.3 ×10^4 and 32.5 ×10^4
same,% Inhibition,"MCF-7 cells; drug 5 μg/ml, single replicate, vs 2% DMSO",38.13% and 36.66% and 36.17%
same,Cells (×10^4) Mean,"MCF-7 cells; drug 10 μg/ml, mean of replicates",24.08 ×10^4
same,% Inhibition Mean,"MCF-7 cells; drug 10 μg/ml, mean of replicates, vs 2% DMSO",52.7%
same,Cells (×10^4),"MCF-7 cells; drug 10 μg/ml, single replicate count",22.0 ×10^4 and 25.5 ×10^4 and 24.8 ×10^4
same,% Inhibition,"MCF-7 cells; drug 10 μg/ml, single replicate, vs 2% DMSO",56.79% and 49.92% and 51.39%
same,H-9 Mean (drug inhibition),H-9 cells; 1 μg/ml,18.74
same,% Inhibition Mean,H-9 cells; 1 μg/ml,18.74%
same,Cells (×10^4) Mean,H-9 cells; 1 μg/ml,40.83 ×10^4
same,% Inhibition,H-9 cells; 1 μg/ml,17.91% and 25.37% and 12.94%
same,Cells (×10^4),H-9 cells; 1 μg/ml,41.3 ×10^4 and 37.5 ×10^4 and 43.8 ×10^4
same,H-9 Mean (drug inhibition),H-9 cells; 5 μg/ml,38.47
same,% Inhibition Mean,H-9 cells; 5 μg/ml,38.47%
same,Cells (×10^4) Mean,H-9 cells; 5 μg/ml,30.92 ×10^4
same,% Inhibition,H-9 cells; 5 μg/ml,39.30% and 40.30% and 35.82%
same,Cells (×10^4),H-9 cells; 5 μg/ml,30.5 ×10^4 and 30.0 ×10^4 and 32.3 ×10^4
same,H-9 Mean (drug inhibition),H-9 cells; 10 μg/ml,49.75
same,% Inhibition Mean,H-9 cells; 10 μg/ml,49.75%
same,Cells (×10^4) Mean,H-9 cells; 10 μg/ml,25.25 ×10^4
same,% Inhibition,H-9 cells; 10 μg/ml,48.26% and 50.25% and 50.75%
same,Cells (×10^4),H-9 cells; 10 μg/ml,26.0 ×10^4 and 25.0 ×10^4 and 24.8 ×10^4
